Among the targets are BRD2(2) (Homo sapiens, UniProt P25440); BRD4(2) (Homo sapiens, UniProt O60885); BRDT(1) (Homo sapiens, UniProt Q58F21); BRDT(1,2) (Homo sapiens, UniProt Q58F21); CECR2 (Homo sapiens, UniProt Q9BXF3); CREBBP (Homo sapiens, UniProt Q92793); FALZ (Homo sapiens, UniProt Q12830).
What all share (test): BROMOscan ligand-binding assay
A further assay concerns the target T1, PCAF (Homo sapiens, UniProt Q92831).
T1 sequence (Q92831 723-827 limits assumed): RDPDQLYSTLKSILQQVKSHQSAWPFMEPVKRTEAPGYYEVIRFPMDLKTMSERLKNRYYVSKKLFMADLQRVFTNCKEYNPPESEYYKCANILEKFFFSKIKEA

Another assay concerns the target T2, TAF1(2) (Homo sapiens, UniProt P21675).
T2 sequence (P21675 1519-1628 limits assumed): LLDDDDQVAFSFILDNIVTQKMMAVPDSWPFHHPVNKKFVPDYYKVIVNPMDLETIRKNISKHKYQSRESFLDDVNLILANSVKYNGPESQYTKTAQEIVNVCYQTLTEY

In the next assay the target is T3, TAF1L(2) (Homo sapiens, UniProt Q8IZX4).
T3 sequence (Q8IZX4 1517-1626 limits assumed): T2 sequence (P21675 1519-1628 limits assumed) with V46M, M51V, V102I, L107I

For the next assay, the target named is T4, TRIM33(PHD,BRD) (Homo sapiens, UniProt Q9UPN9).
T4 sequence (Q9UPN9 882-1087 limits assumed): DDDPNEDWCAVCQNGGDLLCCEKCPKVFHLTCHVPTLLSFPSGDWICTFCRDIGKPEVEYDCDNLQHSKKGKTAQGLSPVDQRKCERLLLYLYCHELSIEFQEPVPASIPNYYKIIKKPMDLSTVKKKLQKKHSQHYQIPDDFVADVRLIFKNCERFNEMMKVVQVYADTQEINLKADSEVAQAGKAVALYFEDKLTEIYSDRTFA

Setting [1] is: KD (BROMOscan), sheet prints no unit (nM).

Substitutions are numbered along the chain they refer to. Like-named read-outs stand apart in the source and are kept apart here.

As usually defined, the Kd is a measure of binding affinity in units of concentration.

CECR2, sequence (Q9BXF3 434-538 limits assumed): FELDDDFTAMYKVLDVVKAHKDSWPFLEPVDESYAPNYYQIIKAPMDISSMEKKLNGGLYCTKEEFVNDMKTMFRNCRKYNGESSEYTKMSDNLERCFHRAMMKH
BRD2(2), sequence (P25440 344-453 limits assumed): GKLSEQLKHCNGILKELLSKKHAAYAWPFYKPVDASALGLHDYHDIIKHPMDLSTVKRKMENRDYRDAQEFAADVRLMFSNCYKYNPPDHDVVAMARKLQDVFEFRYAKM
CREBBP, sequence (Q92793 1085-1192 limits assumed): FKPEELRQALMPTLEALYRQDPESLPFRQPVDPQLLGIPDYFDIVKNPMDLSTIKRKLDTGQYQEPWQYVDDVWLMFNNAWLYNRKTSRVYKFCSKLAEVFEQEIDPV
Description for BRD2(2): (§1) BROMOscan is a binding assay based on the well-known KINOMEscan technology. This assay measures the binding of a DNA-tagged bromodomain to an immobilized BRD ligand. If an inhibitor is present, it will compete with the bromodomain binding to the immobilized ligand, resulting in reduction of a quantitative PCR (qPCR) signal in a dose-dependent manner.
Description for BRD4(2): as §1
Description for BRDT(1): as §1
Description for BRDT(1,2): as §1
Description for CECR2: as §1
Description for CREBBP: as §1
Description for FALZ: as §1
Description for PCAF: as §1
Description for TAF1(2): as §1
Description for TAF1L(2): as §1
Description for TRIM33(PHD,BRD): as §1

As to `Cc1cc(=O)n(C)c2cc(N3C(=O)CC[C@H](NS(=O)(=O)CC(C)C)[C@H]3c3ccc(Cl)cc3)ccc12` [LP-99], the Kd was 9.2 µM at BRD2(2) (BROMOscan, BRD2(2)); 25 µM on BRD4(2) (BROMOscan, BRD4(2)); above 50000 nM on BRDT(1) (BROMOscan, BRDT(1)); 21000 nM at BRDT(1,2) (BROMOscan, BRDT(1,2)); above 50000 nM at CECR2 (BROMOscan, CECR2); above 50000 nM on CREBBP (BROMOscan, CREBBP). Besides, the dissociation constant Kd at FALZ (BROMOscan, FALZ) is above 50000 nM; on PCAF (BROMOscan, PCAF) it was above 50000 nM; on TAF1(2) (BROMOscan, TAF1(2)), above 50 µM; at TAF1L(2) (BROMOscan, TAF1L(2)), above 50 µM; at TRIM33(PHD,BRD) (BROMOscan, TRIM33(PHD,Bromo.)) it was above 50000 nM.

On to `COc1cc(C#N)ccc1S(=O)(=O)Nc1ccc2c(c1)cc(C)c(=O)n2C` [NI 57], for which the Kd on BRD2(2) (BRD2(2)) was above 50 µM; on BRD4(2) (BRD4(2)), above 50 µM; on BRDT(1) (BRDT(1)), 4800 nM; at BRDT(1,2) (BRDT(1,2)), above 50000 nM; on CECR2 (CECR2) it was 12000 nM; at CREBBP (CREBBP), 13000 nM. Moreover, the Kd is 2300 nM at FALZ (FALZ); 4200 nM on PCAF (PCAF); 4.9 µM on TAF1(2) (TAF1(2)); 5.5 µM on TAF1L(2) (TAF1L(2)); above 50000 nM at TRIM33(PHD,BRD) (TRIM33(PHD,Bromo.)).

As to `CCCS(=O)(=O)c1nc(NC2CC2)cc(-c2ccc3c(ccn3C3CC(C)(C)NC(C)(C)C3)c2)n1` [NVS-CECR2-1], the Kd at BRD2(2) was above 30 µM; on BRD4(2) it was 5.7 µM; on BRDT(1), above 30000 nM; on BRDT(1,2), 14000 nM; on CECR2, 14 nM; at CREBBP it was above 30000 nM. Moreover, the dissociation constant Kd is 360 nM at FALZ; above 30000 nM at PCAF; 2.1 µM on TAF1(2); 9.6 µM at TAF1L(2); above 30000 nM on TRIM33(PHD,BRD).

As for `COc1cc2c(cc1NS(=O)(=O)c1ccc(Br)cc1C)n(C)c(=O)n2C` [OF-1], the Kd was 10 µM on BRD2(2) (BRD2(2)); 3500 nM on BRDT(1) (BRDT(1)); 11000 nM on BRDT(1,2) (BRDT(1,2)); above 50000 nM on CECR2 (CECR2); above 30000 nM on CECR2 (read-out: KD (BROMOscan), sheet prints no unit (nM)); 45000 nM at CREBBP (CREBBP). Also, the equilibrium dissociation constant (Kd) at FALZ (FALZ) came to 1600 nM; on PCAF (PCAF) it was 12000 nM; on TAF1(2) (TAF1(2)), 4.7 µM; on TAF1L(2) (TAF1L(2)) it was 5.3 µM; at TRIM33(PHD,BRD) (TRIM33(PHD,Bromo.)) it was 40000 nM.

On to `O=C(C=CN1[C@H]2CC[C@@H]1c1ncnc(NC3CC3)c1C2)c1ccccc1O` [PFI-3 D1], for which the Kd is above 30 µM at BRD2(2) (BROMOscan, BRD2(2)); above 30 µM at BRD4(2) (BROMOscan, BRD4(2)); 24000 nM on BRDT(1) (BROMOscan, BRDT(1)); above 30000 nM at BRDT(1,2) (BROMOscan, BRDT(1,2)); above 30000 nM on CECR2 (BROMOscan, CECR2); above 30000 nM at CREBBP (BROMOscan, CREBBP). The Kd on FALZ (BROMOscan, FALZ) was above 30000 nM; on PCAF (BROMOscan, PCAF) it was above 30000 nM; on TAF1(2) (BROMOscan, TAF1(2)) it was above 30 µM; on TAF1L(2) (BROMOscan, TAF1L(2)), above 30 µM; on TRIM33(PHD,BRD) (BROMOscan, TRIM33(PHD,Bromo.)), above 30000 nM.

As to `O=C(C=CN1CC2CC1CN2c1ccccn1)c1ccccc1O` (centres unmarked) [PFI-3], the Kd was above 30000 nM at BRDT(1) (setting [1]); above 100000 nM at BRDT(1) (KD, BRDT(1)); above 30000 nM on BRDT(1,2) (setting [1]); above 100000 nM at BRDT(1,2) (KD, BRDT(1,2)); above 30000 nM on CECR2 (setting [1]); above 100000 nM on CECR2 (KD, CECR2). Also, the Kd was above 30000 nM on CREBBP (setting [1]); above 100000 nM on CREBBP (KD, CREBBP); above 30000 nM at FALZ (setting [1]); above 100000 nM on FALZ (KD, FALZ); above 30000 nM on PCAF (setting [1]); above 100000 nM on PCAF (KD, PCAF). Moreover, the Kd on TRIM33(PHD,BRD) (setting [1]) was above 30000 nM; at TRIM33(PHD,BRD) (KD, TRIM33(PHD,Bromo.)) it was above 100000 nM.

`COc1ccc(CCc2nc3cc(-c4c(C)noc4C)ccc3n2C[C@H](C)N2CCOCC2)cc1Cl` [SGC-CBP30]: the equilibrium dissociation constant (Kd) at BRD2(2) came to 2.4 µM; on BRD4(2), 6.2 µM; at BRDT(1) (KD, BROMOscan, BRDT(1)), 2600 nM; on BRDT(1,2) (KD, BROMOscan, BRDT(1,2)) it was 3100 nM; at CECR2 (KD, BROMOscan, CECR2) it was 7900 nM; on FALZ (KD, BROMOscan, FALZ) it was 81000 nM. In addition, the Kd was above 30000 nM at PCAF (setting [1]); above 100000 nM at PCAF (KD, BROMOscan, PCAF); 3.1 µM at TAF1(2); 7.1 µM on TAF1L(2); above 30000 nM at TRIM33(PHD,BRD) (setting [1]); above 100000 nM at TRIM33(PHD,BRD) (KD, BROMOscan, TRIM33(PHD,Bromo.)).

In the case of `O=C(O)c1ccccc1O` [Salicylic Acid], the equilibrium dissociation constant (Kd) at BRD2(2) was above 14000 µM; on BRD4(2) it was above 14000 µM; on BRDT(1) (KD, BRDT(1)), above 1.4e+07 nM; at BRDT(1,2) (KD, BRDT(1,2)), 6.1e+06 nM; at CECR2 (KD, CECR2), above 1.4e+07 nM; on CREBBP (KD, CREBBP) it was above 1.4e+07 nM. In addition, the Kd is above 1.4e+07 nM at FALZ (KD, FALZ); above 1.4e+07 nM at PCAF (KD, PCAF); above 14000 µM on TAF1(2); above 14000 µM on TAF1L(2); above 1.4e+07 nM on TRIM33(PHD,BRD) (KD, TRIM33(PHD,Bromo.)).

The record behind these values is PMC6478789, “A chemical toolbox for the study of bromodomains and epigenetic signaling” (Nature Communications, 2019).
